Experimental data published in ChEMBL document CHEMBL3627653, “Synthesis and biological evaluation of spiro[cyclopropane-1,3'-indolin]-2'-ones as potential anticancer agents” (Bioorg Med Chem Lett, 2015).

What was measured:
Assay type in all cases: functional, cell-based
HeLa = assay: Anticancer activity against human HeLa cells assessed as reduction in cell viability incubated for 48 hrs by MTT assay
DU-145 = assay: Anticancer activity against human DU145 cells assessed as reduction in cell viability incubated for 48 hrs by MTT assay; settings: DU-145, 48 h
HT-29 = assay: Anticancer activity against human HT-29 cells assessed as reduction in cell viability incubated for 48 hrs by MTT assay; settings: HT-29, 48 h
MCF7 = assay: Anticancer activity against human MCF7 cells assessed as reduction in cell viability incubated for 48 hrs by MTT assay; settings: MCF7, 48 h
A549 = assay: Anticancer activity against human A549 cells assessed as reduction in cell viability incubated for 48 hrs by MTT assay; settings: A549, 48 h

SMILES	IC50 (HeLa)	IC50 (DU-145)	IC50 (HT-29)	IC50 (MCF7)	IC50 (A549)
CCOC(=O)[C@H]1C(C(=O)c2ccc(OC)cc2)C12C(=O)Nc1ccc(Cl)cc12 (stereo partly drawn)	9.12 µM	5.01 µM	9.54 µM	9.33 µM	6.42 µM
CCOC(=O)[C@H]1[C@H](C(=O)c2ccc3ccccc3c2)C12C(=O)Nc1ccc(Cl)cc12 (relative stereo)	7.76 µM	5.24 µM	5.01 µM	4.89 µM	6.16 µM
CCOC(=O)[C@H]1[C@H](C(=O)c2ccc(OC)c([N+](=O)[O-])c2)C12C(=O)Nc1ccccc12 (relative stereo)	7.76 µM	6.36 µM	7.24 µM	9.77 µM	4.79 µM
CCOC(=O)[C@H]1[C@H](C(=O)OCC)C12C(=O)Nc1ccc(F)cc12 (relative stereo)	84.2 µM	24.3 µM	36.6 µM	36.8 µM	78.2 µM
CCOC(=O)[C@H]1[C@H](C(=O)c2cc(OC)c(OC)c(OC)c2)C12C(=O)Nc1ccc(Cl)cc12 (relative stereo)	39.8 µM	21.9 µM	25.1 µM	37.5 µM	24.1 µM
CCOC(=O)[C@H]1[C@H](C(=O)c2ccc3ccccc3c2)C12C(=O)N(C)c1ccccc12 (relative stereo)	> 100 µM	> 100 µM	> 100 µM	75.9 µM	98.5 µM
COc1cccc2c1C(=O)c1c(O)c3c(c(O)c1C2=O)C[C@@](O)(C(=O)CO)C[C@@H]3O[C@H]1C[C@H](N)[C@H](O)[C@H](C)O1 [DOXORUBICIN]	1.51 µM	1.94 µM	0.93 µM		
CCOC(=O)[C@H]1[C@H](C(=O)c2ccc([N+](=O)[O-])cc2)C12C(=O)Nc1ccc(Br)cc12 (relative stereo)	68.9 µM	31.6 µM	42.6 µM	> 100 µM	30.5 µM
CCOC(=O)[C@H]1[C@H](C(=O)OCC)C12C(=O)Nc1ccc([N+](=O)[O-])cc12 (relative stereo)	32.9 µM	38 µM	50.1 µM	71.6 µM	> 100 µM
CCOC(=O)[C@H]1[C@H](C(=O)OCC)C12C(=O)Nc1ccccc12 (relative stereo)	61.3 µM	18.6 µM	18.9 µM	57.5 µM	> 100 µM
CCOC(=O)[C@H]1[C@H](C(=O)OCC)C12C(=O)Nc1ccc(Br)cc12 (relative stereo)	62.8 µM	50.7 µM	30.9 µM	> 100 µM	> 100 µM
CCOC(=O)[C@H]1[C@H](C(=O)c2ccc(OC)cc2)C12C(=O)Nc1ccccc12 (relative stereo)	26.3 µM	17.4 µM	14.7 µM	19.1 µM	9.77 µM
CCOC(=O)[C@H]1[C@H](C(=O)c2ccc([N+](=O)[O-])cc2)C12C(=O)Nc1ccc(Cl)cc12 (relative stereo)	10.7 µM	2.88 µM	2.95 µM	4.26 µM	3.59 µM
CCOC(=O)[C@@H]1[C@@H](C(=O)c2ccccc2)C12C(=O)Nc1ccccc12 (stereo partly drawn)	7.24 µM	1.69 µM	2.75 µM	2.95 µM	4.16 µM
CCOC(=O)[C@H]1[C@H](C(=O)c2ccc(C)cc2)C12C(=O)Nc1ccc(Cl)cc12 (relative stereo)	> 100 µM	> 100 µM	> 100 µM	90.2 µM	> 100 µM
CCOC(=O)[C@H]1[C@H](C(=O)c2ccc(OC)cc2)C12C(=O)Nc1ccc(Br)cc12 (relative stereo)	45.1 µM	31.7 µM	33.7 µM	41.6 µM	79.4 µM
CCOC(=O)[C@H]1[C@H](C(=O)c2ccc3ccccc3c2)C12C(=O)Nc1ccccc12 (relative stereo)	20 µM	17.2 µM	18 µM	31.1 µM	12.6 µM
